The target in assay [1] is T1, mouse Siglec-2-Fc-Avi (CD22) (Mus musculus, UniProt P35329).
T1 construct: made in house
T1 sequence (P35329 22-708 limits assumed): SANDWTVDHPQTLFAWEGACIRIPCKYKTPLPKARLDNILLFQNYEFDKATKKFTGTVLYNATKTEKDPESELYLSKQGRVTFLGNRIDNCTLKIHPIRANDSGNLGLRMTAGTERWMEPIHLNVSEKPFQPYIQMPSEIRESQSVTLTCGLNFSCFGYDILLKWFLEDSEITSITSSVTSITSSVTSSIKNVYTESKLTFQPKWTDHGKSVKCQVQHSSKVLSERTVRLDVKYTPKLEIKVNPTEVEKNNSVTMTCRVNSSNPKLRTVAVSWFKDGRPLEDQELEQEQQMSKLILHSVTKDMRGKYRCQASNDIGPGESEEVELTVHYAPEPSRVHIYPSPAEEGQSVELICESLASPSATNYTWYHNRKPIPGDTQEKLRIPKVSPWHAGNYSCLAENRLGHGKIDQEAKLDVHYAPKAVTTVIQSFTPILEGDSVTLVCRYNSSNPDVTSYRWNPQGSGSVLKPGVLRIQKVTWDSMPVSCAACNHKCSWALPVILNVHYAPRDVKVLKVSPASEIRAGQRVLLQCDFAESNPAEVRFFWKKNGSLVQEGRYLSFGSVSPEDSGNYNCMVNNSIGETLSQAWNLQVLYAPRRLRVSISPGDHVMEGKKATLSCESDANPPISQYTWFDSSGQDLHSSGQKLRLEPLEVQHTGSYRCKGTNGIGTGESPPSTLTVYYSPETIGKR
The assay is described as follows: SPR binding affinity to mouse CD22. Conditions: steady-state analysis. In outline:
(§1)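 SialoExo pretreatment, 4 h 37° C.; biotinylated CD22 on SA chip, Biacore 8K. Buffer 10 mM HEPES, 150 mM NaCl, 0.05% Tween-20, pH 7.5, 1% DMSO. Dissociation 120 s; solvent-corrected; steady-state KD.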
For orientation: Surface plasmon resonance follows binding to a sensor surface in real time, without labels.

In assay [2] the target is T2, human Siglec-2/CD22 protein (Homo sapiens, UniProt P20273).
T2 construct: purchased Acro Biosystems SI2-H82E3
T2 sequence (P20273 20-847): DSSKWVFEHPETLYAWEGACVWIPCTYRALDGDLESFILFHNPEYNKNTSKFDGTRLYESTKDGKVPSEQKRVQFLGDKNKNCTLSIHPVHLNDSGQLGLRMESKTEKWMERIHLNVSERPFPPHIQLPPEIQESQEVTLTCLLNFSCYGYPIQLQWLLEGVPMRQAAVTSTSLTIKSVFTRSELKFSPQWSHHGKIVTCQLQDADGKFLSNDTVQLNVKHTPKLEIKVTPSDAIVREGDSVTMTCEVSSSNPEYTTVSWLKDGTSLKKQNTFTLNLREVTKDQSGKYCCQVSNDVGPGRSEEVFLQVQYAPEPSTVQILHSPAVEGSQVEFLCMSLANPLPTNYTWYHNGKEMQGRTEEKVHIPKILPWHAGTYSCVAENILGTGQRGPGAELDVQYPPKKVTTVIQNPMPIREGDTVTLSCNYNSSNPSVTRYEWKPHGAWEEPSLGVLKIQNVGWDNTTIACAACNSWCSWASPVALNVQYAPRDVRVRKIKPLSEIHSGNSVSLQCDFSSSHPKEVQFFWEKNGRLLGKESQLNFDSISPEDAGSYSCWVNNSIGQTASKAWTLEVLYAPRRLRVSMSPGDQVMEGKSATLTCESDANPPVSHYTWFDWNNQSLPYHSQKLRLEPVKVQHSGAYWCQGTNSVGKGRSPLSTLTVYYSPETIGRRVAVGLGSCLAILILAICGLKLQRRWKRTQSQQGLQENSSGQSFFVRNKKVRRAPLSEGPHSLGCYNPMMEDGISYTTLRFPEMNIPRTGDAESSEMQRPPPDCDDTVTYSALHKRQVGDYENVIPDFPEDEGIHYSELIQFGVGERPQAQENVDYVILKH
The assay is described as follows: SPR binding affinity to human CD22. Conditions: steady-state analysis. In short, it runs like this: as §1

The target in a further assay is cynomolgus Siglec-2/CD22 (Macaca fascicularis, UniProt A0A2K5WCZ6). The assay is described as follows: biochemical. The class given is binding. The following applies: SPR, steady-state analysis; read-out: Affinity cyno CD22. In short, it runs like this:
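SPR with desialylated (SialoExo, 4 h, 37° C.) cynomolgus CD22 amine-coupled to a CM5 chip. Running buffer 10 mM HEPES, 150 mM NaCl, 0.05% Tween-20, pH 7.5, 1% DMSO, with solvent correction; 120 s dissociation. Affinities from steady-state analysis.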

This is an account of results in patent publication US20250064941A1, “SIGLEC LIGANDS, CONJUGATES, AND METHODS OF USE THEREOF” (Osprey Biopharmaceuticals, Inc., priority 2023, published 2025).

Chain of cynomolgus Siglec-2/CD22 (A0A2K5WCZ6 entry or part of it): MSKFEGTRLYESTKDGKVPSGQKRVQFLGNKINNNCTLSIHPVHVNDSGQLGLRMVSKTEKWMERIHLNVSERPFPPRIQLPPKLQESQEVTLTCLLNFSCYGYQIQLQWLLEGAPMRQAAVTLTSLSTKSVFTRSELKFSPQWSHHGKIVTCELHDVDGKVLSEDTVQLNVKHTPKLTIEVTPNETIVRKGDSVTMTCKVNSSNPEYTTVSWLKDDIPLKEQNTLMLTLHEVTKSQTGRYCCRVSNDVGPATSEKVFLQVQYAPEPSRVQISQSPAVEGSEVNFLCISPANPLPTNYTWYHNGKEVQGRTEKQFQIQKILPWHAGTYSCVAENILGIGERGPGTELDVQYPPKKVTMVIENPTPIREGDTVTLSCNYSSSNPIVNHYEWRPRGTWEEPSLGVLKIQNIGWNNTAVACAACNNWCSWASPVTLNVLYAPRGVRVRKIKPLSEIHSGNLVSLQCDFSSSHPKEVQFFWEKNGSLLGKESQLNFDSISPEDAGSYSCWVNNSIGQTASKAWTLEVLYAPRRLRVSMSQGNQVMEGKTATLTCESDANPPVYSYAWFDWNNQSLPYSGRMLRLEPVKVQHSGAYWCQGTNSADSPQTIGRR

For the compound `O=C(Cc1ccc(Cl)cc1)NC[C@@H](O)[C@@H](O)[C@@H]1O[C@@](SCc2cccc(C(=O)O)c2)(C(=O)O)C[C@H](O)[C@H]1NC(=O)CO` [Compound 116, (2S,4S,5R,6R)-2-((3-carboxybenzyl)thio)-6-((1R,2R)-3-(2-(4-chlorophenyl)acetamido)-1,2-dihydroxypropyl)-4-hydroxy-5-(2-hydroxyacetamido)tetrahydro-2H-pyran-2-carboxylic acid], the Kd in assay [1] was 1000 to 10000 nM; in assay [2], less than 1000 nM; at cynomolgus Siglec-2/CD22 it was less than 1000 nM.
On to `C#CCOCCOCCO[C@]1(C(=O)O)C[C@H](O)[C@@H](NC(=O)CO)[C@H]([C@H](O)[C@H](O)CNC(=O)Cc2ccccc2O)O1` [Compound 151, (2R,4S,5R,6R)-6-((1R,2R)-1,2-dihydroxy-3-(2-(2-hydroxyphenyl)acetamido)propyl)-4-hydroxy-5-(2-hydroxyacetamido)-2-(2-(2-(prop-2-yn-1-yloxy)ethoxy)ethoxy)tetrahydro-2H-pyran-2-carboxylic acid], for which the Kd in assay [1] was 1000 to 10000 nM; in assay [2] it was 1000 to 10000 nM; on cynomolgus Siglec-2/CD22, greater than 10000 nM.
For the compound `C#CCCC(=O)NCCCCCCO[C@]1(C(=O)O)C[C@H](O)[C@@H](NC(=O)CO)[C@H]([C@H](O)[C@H](O)CNC(=O)Cc2ccc(Cl)cc2)O1` [Compound 217, (2R,4S,5R,6R)-6-((1R,2R)-3-(2-(4-chlorophenyl)acetamido)-1,2-dihydroxypropyl)-4-hydroxy-5-(2-hydroxyacetamido)-2-((6-(pent-4-ynamido)hexyl)oxy)tetrahydro-2H-pyran-2-carboxylic acid], the values for the Kd (in assay [1]; in assay [2]; on cynomolgus Siglec-2/CD22) were 1000 to 10000 nM, less than 1000 nM and less than 1000 nM, respectively.
Turning to `C#CCOCCCCCCO[C@]1(C(=O)O)C[C@H](O)[C@@H](NC(=O)COC)[C@H]([C@H](O)[C@H](O)CNC(=O)Cc2ccc(Cl)cc2)O1` [Compound 192, (2R,4S,5R,6R)-6-((1R,2R)-3-(2-(4-chlorophenyl)acetamido)-1,2-dihydroxypropyl)-4-hydroxy-5-(2-methoxyacetamido)-2-((6-(prop-2-yn-1-yloxy)hexyl)oxy)tetrahydro-2H-pyran-2-carboxylic acid], the results for the Kd (in assay [1]; in assay [2]; on cynomolgus Siglec-2/CD22) were greater than 10000 nM, 1000 to 10000 nM and 1000 to 10000 nM, respectively.
Consider `C#CCCCCCCO[C@]1(C(=O)O)C[C@H](O)[C@@H](NC(=O)CO)[C@H]([C@H](O)[C@H](O)CNC(=O)c2ccc(Cl)cc2)O1` [Cpd. 267, (2R,4S,5R,6R)-6-((1R,2R)-3-(4-chlorobenzamido)-1,2-dihydroxypropyl)-4-hydroxy-5-(2-hydroxyacetamido)-2-(oct-7-yn-1-yloxy) tetrahydro-2H-pyran-2-carboxylic acid], for which the Kd is 1000 to 10000 nM in assay [1], less than 1000 nM in assay [2] and less than 1000 nM on cynomolgus Siglec-2/CD22.
For `C#CCOCCCCCCO[C@]1(C(=O)O)C[C@H](O)[C@@H](NCC(N)=O)[C@H]([C@H](O)[C@H](O)CNC(=O)Cc2ccc(Cl)cc2)O1` [Compound 182, (2R,4S,5R,6R)-5-((2-amino-2-oxoethyl)amino)-6-((1R,2R)-3-(2-(4-chlorophenyl)acetamido)-1,2-dihydroxypropyl)-4-hydroxy-2-((6-(prop-2-yn-1-yloxy)hexyl)oxy)tetrahydro-2H-pyran-2-carboxylic acid], the Kd (in assay [1]; in assay [2]; at cynomolgus Siglec-2/CD22) was 1000 to 10000 nM each time.
Consider `C#CCOCCCCCCO[C@]1(C(=O)O)C[C@H](O)[C@@H](NC(=O)CO)[C@H]([C@H](O)[C@H](O)CNC(=O)Cc2ccc(Cl)c(F)c2)O1` [Compound 130, (2R,4S,5R,6R)-6-((1R,2R)-3-(2-(4-chloro-3-fluorophenyl)acetamido)-1,2-dihydroxypropyl)-4-hydroxy-5-(2-hydroxyacetamido)-2-((6-(prop-2-yn-1-yloxy)hexyl)oxy)tetrahydro-2H-pyran-2-carboxylic acid], for which the figures for the Kd (in assay [1]; in assay [2]; at cynomolgus Siglec-2/CD22) were 1000 to 10000 nM, less than 1000 nM and less than 1000 nM, respectively.
Turning to `CC(=O)NCCOCCOCCOCCOCCC(=O)NCCCCCO[C@]1(C(=O)O)C[C@H](O)[C@@H](NC(=O)CO)[C@H]([C@H](O)[C@H](O)CNC(=O)Cc2ccc(Cl)cc2)O1` [Cpd. 241, (2R,4S,5R,6R)-6-((1R,2R)-3-(2-(4-chlorophenyl)acetamido)-1,2-dihydroxypropyl)-2-((2,18-dioxo-6,9,12,15-tetraoxa-3,19-diazatetracosan-24-yl)oxy)-4-hydroxy-5-(2-hydroxyacetamido) tetrahydro-2H-pyran-2-carboxylic acid], the Kd in assay [1] is 1000 to 10000 nM; in assay [2], less than 1000 nM; on cynomolgus Siglec-2/CD22 it was less than 1000 nM.
On to `C#CCOc1ccc(CO[C@]2(C(=O)O)C[C@H](O)[C@@H](NC(=O)CO)[C@H]([C@H](O)[C@H](O)CNC(=O)Cc3ccc(-c4ccc(F)cc4)cc3)O2)cc1` [Compound 48, (2R,4S,5R,6R)-6-((1R,2R)-3-(2-(4′-fluoro-[1,1′-biphenyl]-4-yl)acetamido)-1,2-dihydroxypropyl)-4-hydroxy-5-(2-hydroxyacetamido)-2-((4-(prop-2-yn-1-yloxy)benzyl)oxy)tetrahydro-2H-pyran-2-carboxylic acid], for which the Kd in assay [1] was 1000 to 10000 nM; in assay [2], less than 1000 nM; at cynomolgus Siglec-2/CD22, 1000 to 10000 nM.
For `C#CCOCCOCCO[C@]1(C(=O)O)C[C@H](O)[C@@H](NC(=O)CO)[C@H]([C@H](O)[C@H](O)CNC(=O)Cc2ccc(F)c(C(F)(F)F)c2)O1` [Compound 132, (2R,4S,5R,6R)-6-((1R,2R)-3-(2-(4-fluoro-3-(trifluoromethyl)phenyl)acetamido)-1,2-dihydroxypropyl)-4-hydroxy-5-(2-hydroxyacetamido)-2-(2-(2-(prop-2-yn-1-yloxy)ethoxy)ethoxy)tetrahydro-2H-pyran-2-carboxylic acid], the Kd in assay [1] is greater than 10000 nM; in assay [2] it was 1000 to 10000 nM; on cynomolgus Siglec-2/CD22, less than 1000 nM.
In the case of `C#CCCOc1ccc(CO[C@]2(C(=O)O)C[C@H](O)[C@@H](NC(=O)CO)[C@H]([C@H](O)[C@H](O)CNC(=O)Cc3ccc(-c4ccccc4)cc3)O2)cc1` [Compound 37, (2R,4S,5R,6R)-6-((1R,2R)-3-(2-([1,1′-biphenyl]-4-yl)acetamido)-1,2-dihydroxypropyl)-2-((4-(but-3-yn-1-yloxy)benzyl)oxy)-4-hydroxy-5-(2-hydroxyacetamido)tetrahydro-2H-pyran-2-carboxylic acid], the Kd (in assay [1]; in assay [2]; on cynomolgus Siglec-2/CD22) was less than 1000 nM throughout.
`C#CCOc1ccc(CO[C@]2(C(=O)O)C[C@H](O)[C@@H](NC(=O)CO)[C@H]([C@H](O)[C@H](O)CNC(=O)Cc3ccc(-c4ccc(O)cc4)cc3Cl)O2)cc1` [Compound 52, (2R,4S,5R,6R)-6-((1R,2R)-3-(2-(3-chloro-4′-hydroxy-[1,1′-biphenyl]-4-yl)acetamido)-1,2-dihydroxypropyl)-4-hydroxy-5-(2-hydroxyacetamido)-2-((4-(prop-2-yn-1-yloxy)benzyl)oxy)tetrahydro-2H-pyran-2-carboxylic acid]: the Kd in assay [1] was less than 1000 nM; in assay [2], less than 1000 nM; on cynomolgus Siglec-2/CD22, 1000 to 10000 nM.
